Where “and” joins values, the source holds several entries; their conditions need not be identical. Equal values may be shown once.

The source of these data is US12600725B2 (Memorial Sloan-Kettering Cancer Center, priority 2013, dated 2026).

One test concerns the target Hsp90α (Homo sapiens, UniProt P07900). Kind of test: biochemical. The following applies: FP competition, 6 nM Cy3B-GM, 10 nM protein, 4° C. for 24 h.
For another test, the target named is T1, Trap-1 (Homo sapiens, UniProt Q12931).
T1 sequence (Q12931 60-704): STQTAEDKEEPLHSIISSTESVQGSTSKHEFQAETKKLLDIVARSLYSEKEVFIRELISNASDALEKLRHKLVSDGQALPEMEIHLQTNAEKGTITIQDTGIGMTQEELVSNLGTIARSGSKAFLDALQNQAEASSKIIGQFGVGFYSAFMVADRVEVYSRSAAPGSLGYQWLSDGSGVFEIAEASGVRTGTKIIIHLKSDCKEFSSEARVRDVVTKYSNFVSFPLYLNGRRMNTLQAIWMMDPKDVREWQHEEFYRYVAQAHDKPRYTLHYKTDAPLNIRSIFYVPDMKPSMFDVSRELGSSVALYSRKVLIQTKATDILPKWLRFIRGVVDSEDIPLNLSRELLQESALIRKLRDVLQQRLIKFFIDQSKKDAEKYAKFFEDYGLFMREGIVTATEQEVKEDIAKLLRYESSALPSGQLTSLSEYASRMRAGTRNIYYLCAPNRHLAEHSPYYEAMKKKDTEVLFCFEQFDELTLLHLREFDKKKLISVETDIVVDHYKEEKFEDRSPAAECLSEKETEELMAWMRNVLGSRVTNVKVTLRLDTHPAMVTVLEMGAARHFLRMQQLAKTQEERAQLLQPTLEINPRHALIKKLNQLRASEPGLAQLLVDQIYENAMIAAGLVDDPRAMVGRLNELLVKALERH
Kind of test: biochemical.

In the next test the target is Grp94 (Canis lupus familiaris, UniProt P41148). The following applies: read-out: Grp94; FP competition, 6 nM Cy3B-GM, 10 nM protein, 4° C. for 24 h.
Another test concerns the target Hsp90β (Homo sapiens, UniProt P08238).

Chain of Hsp90β (P08238 whole entry): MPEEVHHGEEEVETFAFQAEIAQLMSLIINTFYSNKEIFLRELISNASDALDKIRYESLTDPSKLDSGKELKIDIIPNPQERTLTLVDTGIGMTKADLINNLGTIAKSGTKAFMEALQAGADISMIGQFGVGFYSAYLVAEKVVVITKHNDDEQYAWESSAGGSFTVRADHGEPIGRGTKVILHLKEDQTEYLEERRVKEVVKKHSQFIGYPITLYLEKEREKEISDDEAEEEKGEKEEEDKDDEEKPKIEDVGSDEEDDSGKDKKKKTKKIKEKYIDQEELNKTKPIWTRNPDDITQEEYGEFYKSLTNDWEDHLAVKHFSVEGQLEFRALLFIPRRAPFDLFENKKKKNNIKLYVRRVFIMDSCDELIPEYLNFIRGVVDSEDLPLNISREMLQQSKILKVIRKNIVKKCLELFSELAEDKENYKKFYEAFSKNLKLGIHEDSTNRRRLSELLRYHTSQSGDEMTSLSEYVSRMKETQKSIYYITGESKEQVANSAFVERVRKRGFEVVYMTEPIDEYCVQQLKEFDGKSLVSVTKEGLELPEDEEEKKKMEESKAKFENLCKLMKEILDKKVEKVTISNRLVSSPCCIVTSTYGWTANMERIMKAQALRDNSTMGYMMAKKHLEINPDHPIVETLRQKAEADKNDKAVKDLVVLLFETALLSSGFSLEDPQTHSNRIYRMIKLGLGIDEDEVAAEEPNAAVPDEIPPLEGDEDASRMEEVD
Chain of Grp94 (P41148 with tags, fused parts or gaps DELINS287-327GGGG): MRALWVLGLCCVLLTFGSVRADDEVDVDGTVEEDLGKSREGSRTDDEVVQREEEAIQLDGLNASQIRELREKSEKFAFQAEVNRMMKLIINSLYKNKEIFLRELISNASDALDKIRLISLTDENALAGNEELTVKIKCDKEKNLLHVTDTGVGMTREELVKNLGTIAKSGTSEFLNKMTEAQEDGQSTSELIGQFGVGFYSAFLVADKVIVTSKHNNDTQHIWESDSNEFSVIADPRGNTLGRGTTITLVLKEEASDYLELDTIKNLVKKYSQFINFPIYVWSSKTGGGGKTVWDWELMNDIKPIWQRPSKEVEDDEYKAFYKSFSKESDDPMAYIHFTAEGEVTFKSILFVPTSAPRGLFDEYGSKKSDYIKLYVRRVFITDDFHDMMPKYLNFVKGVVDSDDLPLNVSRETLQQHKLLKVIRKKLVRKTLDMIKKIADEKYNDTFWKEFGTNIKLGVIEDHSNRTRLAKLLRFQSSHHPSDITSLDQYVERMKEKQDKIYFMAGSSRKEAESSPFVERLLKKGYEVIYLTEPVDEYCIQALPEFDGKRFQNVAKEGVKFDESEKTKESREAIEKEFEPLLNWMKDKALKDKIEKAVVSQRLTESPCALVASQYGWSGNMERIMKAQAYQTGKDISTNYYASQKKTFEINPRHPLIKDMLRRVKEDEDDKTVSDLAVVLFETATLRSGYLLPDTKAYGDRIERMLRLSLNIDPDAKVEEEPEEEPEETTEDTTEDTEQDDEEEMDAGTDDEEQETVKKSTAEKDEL

In the case of `Nc1ncn(CCCCCC(F)(F)F)c2nc(Sc3cc(Cl)cc(Cl)c3)nc1-2` [PDP-101A, 8-((3,5-Dichlorophenyl)thio)-3-(6,6,6-trifluorohexyl)-3H-purin-6-amine], the IC50 at Hsp90α, against Trap-1, at Grp94 and at Hsp90β was > 100 µM each time.

On to `Nc1ncnc2c1nc(Sc1cc(Cl)cc(Cl)c1)n2CCCCCC(F)(F)F` [PDP-101B, 8-((3,5-Dichlorophenyl)thio)-9-(6,6,6-trifluorohexyl)-9H-purin-6-amine], for which the IC50 on Hsp90α was > 100 µM; against Trap-1 it was > 100 µM; at Grp94, 1.65 ± 0.31 µM; at Hsp90β it was > 100 µM.

As for `CC#CCn1c(Sc2cc(Cl)cc(Cl)c2)nc2c(N)ncnc21` [PDP-102A, 9-(But-2-yn-1-yl)-8-((3,5-dichlorophenyl)thio)-9H-purin-6-amine], the IC50 on Hsp90α is > 100 µM; on Trap-1, > 50 µM; on Grp94, > 5 µM; on Hsp90β, > 100 µM.

As to `CC#CCn1cnc(N)c2nc(Sc3cc(Cl)cc(Cl)c3)nc1-2` [PDP-102B, 3-(But-2-yn-1-yl)-8-((3,5-dichlorophenyl)thio)-3H-purin-6-amine], the IC50 is > 100 µM at Hsp90α, > 25 µM against Trap-1, 10.3 ± 0.82 µM on Grp94 and > 100 µM against Hsp90β.

With `Nc1ncn(Cc2ccccc2)c2nc(Sc3cc(Cl)cc(Cl)c3)nc1-2` [PDP-107B, 3-Benzyl-8-((3,5-dichlorophenyl)thio)-3H-purin-6-amine], the IC50 on Hsp90α was > 100 µM; at Trap-1 it was > 100 µM; at Grp94 it was 11.6 µM; against Hsp90β, > 100 µM.

Take `C#CCCCn1c(Sc2cc(Br)cc(I)c2)nc2c(N)ncnc21` [PDP-108A]: the IC50 was > 50 µM on Hsp90α, > 50 µM at Trap-1, 0.133 µM at Grp94 and > 100 µM on Hsp90β.

`Nc1ncnc2c1nc(Sc1cc(Cl)cc(Cl)c1)n2CCCCC(F)(F)F` [PDP-109A, 8-((3,5-Dichlorophenyl)thio)-9-(5,5,5-trifluoropentyl)-9H-purin-6-amine]: the IC50 is > 100 µM at Hsp90α, > 100 µM against Trap-1, 1.11 ± 0.28 µM on Grp94 and > 100 µM at Hsp90β.

As for `Nc1ncn(CCCCC(F)(F)F)c2nc(Sc3cc(Cl)cc(Cl)c3)nc1-2` [PDP-109B, 8-((3,5-Dichlorophenyl)thio)-3-(5,5,5-trifluoropentyl)-3H-purin-6-amine], the IC50 on Hsp90α is > 100 µM; against Trap-1 it was > 100 µM; on Grp94, > 5 µM; against Hsp90β, > 100 µM.

For the compound `Nc1ncnc2c1nc(Sc1cc(Cl)cc(Cl)c1)n2CC1CCCCC1` [PDP-110A, 9-(Cyclohexylmethyl)-8-((3,5-dichlorophenyl)thio)-9H-purin-6-amine], the IC50 on Hsp90α is > 100 µM; on Trap-1, > 100 µM; on Grp94 it was 4.34 ± 0.75 µM; at Hsp90β, > 100 µM.

For the compound `C#CCCCCn1c(Sc2cc(Cl)cc(Cl)c2)nc2c(N)ncnc21` [PDP-112A, 8-((3,5-Dichlorophenyl)thio)-9-(hex-5-yn-1-yl)-9H-purin-6-amine], the IC50 at Hsp90α was > 100 µM; at Trap-1 it was > 100 µM; at Grp94, 0.65 ± 0.05 µM; on Hsp90β, > 100 µM.

With `C#CCCCCn1cnc(N)c2nc(Sc3cc(Cl)cc(Cl)c3)nc1-2` [PDP-112B, 8-((3,5-Dichlorophenyl)thio)-3-(hex-5-yn-1-yl)-3H-purin-6-amine], the IC50 on Hsp90α was > 100 µM; against Trap-1, > 100 µM; at Grp94, > 10 µM; against Hsp90β it was > 100 µM.

Regarding `C#CCCCn1c(Sc2ccc(Cl)cc2C(F)(F)F)nc2c(N)ncnc21` [PDP-117A], the IC50 on Hsp90α is > 100 µM; against Trap-1, 34.4 µM; on Grp94 it was 1.58 µM; on Hsp90β, > 100 µM.

Take `C#CCCCn1c(Sc2cccc(Cl)c2Cl)nc2c(N)ncnc21` [PDP-119A]: the IC50 is > 100 µM at Hsp90α, > 100 µM against Trap-1, 1.96 µM at Grp94 and > 100 µM on Hsp90β.

In the case of `C#CCCCn1c(Sc2cc(Br)cc(OC(F)(F)F)c2)nc2c(N)ncnc21` [PDP-120A, 8-((3-Bromo-5-(trifluoromethoxy)phenyl)thio)-9-(pent-4-yn-1-yl)-9H-purin-6-amine], the IC50 was > 100 µM on Hsp90α, 1.87 µM against Trap-1, 1.21 µM at Grp94 and > 100 µM against Hsp90β.

Take `C#CCCCn1cnc(N)c2nc(Sc3cc(Br)cc(OC(F)(F)F)c3)nc1-2` [PDP-120B]: the IC50 at Hsp90α is > 100 µM; against Trap-1 it was > 100 µM; on Grp94, > 10 µM; at Hsp90β, > 100 µM.

Consider `C#CCCCn1c(Sc2cc(Cl)c(Cl)c(Cl)c2)nc2c(N)ncnc21` [PDP-121], for which the IC50 is > 100 µM at Hsp90α, 2.2 ± 0.67 µM at Trap-1, 1.66 ± 0.48 µM at Grp94 and > 100 µM at Hsp90β.

As for `C#CCCCn1c(Sc2ccc(C(F)(F)F)cc2C(F)(F)F)nc2c(N)ncnc21` [PDP-122], the IC50 at Hsp90α was > 100 µM; against Trap-1 it was 7.64 ± 2.15 µM; on Grp94, 0.5 ± 0.39 µM; against Hsp90β, > 100 µM.

For the compound `C#CCCCn1c(Sc2cc(Cl)cc(Cl)c2Cl)nc2c(N)ncnc21` [PDP-125A], the IC50 on Hsp90α is > 100 µM; against Trap-1, 6.04 ± 0.55 µM; on Grp94, 0.19 ± 0.01 µM; at Hsp90β, > 100 µM.

Turning to `C#CCCCn1cnc(N)c2nc(Sc3cc(Cl)cc(Cl)c3Cl)nc1-2` [PDP-125B], the IC50 on Hsp90α is > 100 µM; against Trap-1, 58.8 µM; on Grp94 it was 5.21 µM; against Hsp90β it was > 100 µM.

`C#CCCCn1c(Sc2ccc(Cl)c(Cl)c2Cl)nc2c(N)ncnc21` [PDP-126A]: the IC50 came out at 15.7 ± 0.35 µM at Hsp90α, 4.03 ± 0.89 µM at Trap-1, 0.27 ± 0.14 µM on Grp94 and 18.3 ± 1.29 µM against Hsp90β.

On to `C#CCCCn1cnc(N)c2nc(Sc3ccc(Cl)c(Cl)c3Cl)nc1-2` [PDP-126B], for which the IC50 is > 100 µM at Hsp90α, 34.1 µM on Trap-1, 8.7 µM on Grp94 and > 100 µM against Hsp90β.

For the compound `Nc1ncnc2c1nc(Sc1cc(Cl)cc(Cl)c1)n2CCc1ccccc1` [PDP-127, 8-((3,5-Dichlorophenyl)thio)-9-phenethyl-9H-purin-6-amine], the IC50 on Hsp90α was > 100 µM; at Trap-1, > 100 µM; at Grp94 it was > 2.5 µM; against Hsp90β, > 100 µM.

For the compound `Nc1ncn(CCC(F)(F)F)c2nc(Sc3cc(Cl)cc(Cl)c3)nc1-2` [PDP-I-13-N3, 8-((3,5-Dichlorophenyl)thio)-3-(3,3,3-trifluoropropyl)-3H-purin-6-amine], the IC50 is > 50 µM at Hsp90α, > 100 µM against Trap-1, 12.8 ± 0.86 µM at Grp94 and > 100 µM against Hsp90β.

As to `Nc1ncnc2c1nc(Sc1cc(Cl)cc(Cl)c1)n2CCC(F)(F)F` [PDP-I-13-N9, 8-((3,5-Dichlorophenyl)thio)-9-(3,3,3-trifluoropropyl)-9H-purin-6-amine], the IC50 on Hsp90α was > 50 µM; against Trap-1, 10.1 ± 1.13 µM; at Grp94, 0.57 ± 0.08 µM; against Hsp90β it was > 100 µM.

As for `C#CCCn1c(Sc2cc(Cl)cc(Cl)c2)nc2c(N)ncnc21` [PDP-I-14-N9, 9-(But-3-yn-1-yl)-8-((3,5-dichlorophenyl)thio)-9H-purin-6-amine], the IC50 is > 100 µM on Hsp90α, > 100 µM at Trap-1, 0.27 ± 0.02 µM at Grp94 and > 100 µM at Hsp90β.

For the compound `C#CCCCn1c(Sc2cccc3ccccc23)nc2c(N)ncnc21` [PDP-I-16-N9], the IC50 was > 100 µM on Hsp90α, > 100 µM on Trap-1, 2.16 ± 0.21 µM on Grp94 and > 100 µM on Hsp90β.

`C#CCCCn1c(Sc2ccc(Cl)c(Cl)c2)nc2c(N)ncnc21` [PDP-I-25-N9]: the IC50 on Hsp90α was 4.82 ± 1.05 µM; against Trap-1, 2.35 ± 0.09 µM; at Grp94 it was 0.42 ± 0.04 µM; at Hsp90β, 10.2 ± 1.62 µM.

As for `C#CCCCn1c(Sc2ccc(Br)cc2CC)nc2c(N)ncnc21` [PDP-I-54-N9], the IC50 is 13.9 µM and 14 µM on Hsp90α; 4.9 ± 0.27 µM against Trap-1; 0.66 ± 0.1 µM at Grp94; > 50 µM on Hsp90β.

On to `C#CCCCn1c(Sc2cc(Br)cc(Br)c2)nc2c(N)ncnc21` [PDP-I-59-N9], for which the IC50 on Hsp90α was > 100 µM; against Trap-1, > 100 µM; at Grp94 it was 0.26 ± 0.07 µM; against Hsp90β, > 100 µM.

Regarding `C#CCCCn1c(Sc2ccc(Br)cn2)nc2c(N)ncnc21` [PDP-I-60-N9], the IC50 at Hsp90α turned out to be 2.18 ± 0.1 µM; against Trap-1, 2.18 ± 0.55 µM; at Grp94, 0.53 ± 0.03 µM; against Hsp90β, 2.82 µM.

For `C#CCCCn1c(Sc2cc(Cl)cc3c(Cl)ccnc23)nc2c(N)ncnc21` [PDP-I-79-N9], the IC50 is > 100 µM on Hsp90α, > 100 µM at Trap-1, 2.78 ± 0.21 µM at Grp94 and > 100 µM on Hsp90β.
